Measurements as given in publication PMC5224920, “Assessing the mechanism and therapeutic potential of modulators of the human Mediator complex-associated protein kinases” (eLife, 2016).

Tested on: 12 single or co-culture in vitro tissue models of primary cells
Assay: Culture/co-culture cell model panel, extracellular biomarkers (DiscoveRx); as to CCL2/MCP-1: reference of the scale not given here; as to CXCL8/IL-8: reference of the scale not given here; as to CXCL9/MIG: reference of the scale not given here; as to IL-1alpha: reference of the scale not given here; as to PBMC Cytotoxicity: reference of the scale not given here; as to SRB: reference of the scale not given here
Type: cell-based, human

Cc1n[nH]c2ncc(C(=O)N3CCC[C@H]3c3ccc(Cl)cc3)cc12 [CMPD4]
tPA (BENo, 3.70E2 nM): -0.062 | uPA (BENo, 3.70E2 nM): -0.019 | CCL26/Eotaxin-3 (BENo, 4.12E1 nM): 0.012 | CD54/ICAM-1 (BENo, 4.12E1 nM): -0.077 | CD87/uPAR (BENo, 4.12E1 nM): -0.027 | CXCL8/IL-8 (BENo, 4.12E1 nM): 0.020 | CXCL9/MIG (BENo, 4.12E1 nM): -0.004 | CXCL10/IP-10 (BENo, 4.12E1 nM): -0.033 | CXCL11/I-TAC (BENo, 4.12E1 nM): -0.036 | EGFR (BENo, 4.12E1 nM): 0.00426 | HLA-DR (BENo, 4.12E1 nM): -0.016 | IL-1alpha (BENo, 4.12E1 nM): 0.010 | Keratin 8/18 (BENo, 4.12E1 nM): -0.010 | MMP-1 (BENo, 4.12E1 nM): -0.031 | MMP-9 (BENo, 4.12E1 nM): -0.003 | PAI-I (BENo, 4.12E1 nM): -0.067 | SRB (BENo, 4.12E1 nM): 0.00253 | tPA (BENo, 4.12E1 nM): -0.061 | uPA (BENo, 4.12E1 nM): -0.015 | CCL26/Eotaxin-3 (BENo, 4.57E0 nM): 0.029 | CD54/ICAM-1 (BENo, 4.57E0 nM): -0.040 | CD87/uPAR (BENo, 4.57E0 nM): 0.028 | CXCL8/IL-8 (BENo, 4.57E0 nM): 0.039 | CXCL9/MIG (BENo, 4.57E0 nM): 0.050 | CXCL10/IP-10 (BENo, 4.57E0 nM): 0.057 | CXCL11/I-TAC (BENo, 4.57E0 nM): -0.035 | EGFR (BENo, 4.57E0 nM): 0.015 | HLA-DR (BENo, 4.57E0 nM): 0.068 | IL-1alpha (BENo, 4.57E0 nM): -0.00546 | Keratin 8/18 (BENo, 4.57E0 nM): -0.020 | MMP-1 (BENo, 4.57E0 nM): -0.009 | MMP-9 (BENo, 4.57E0 nM): -0.020 | PAI-I (BENo, 4.57E0 nM): -0.00037 | SRB (BENo, 4.57E0 nM): 0.018 | tPA (BENo, 4.57E0 nM): 0.003 | uPA (BENo, 4.57E0 nM): -0.020 | CCL2/MCP-1 (BF4T, 1.00E4 nM): -0.010 | CCL26/Eotaxin-3 (BF4T, 1.00E4 nM): -0.144 | CD54/ICAM-1 (BF4T, 1.00E4 nM): -0.092 | CD90 (BF4T, 1.00E4 nM): -0.00366 | CD106/VCAM-1 (BF4T, 1.00E4 nM): -0.026 | CXCL8/IL-8 (BF4T, 1.00E4 nM): 0.017 | IL-1alpha (BF4T, 1.00E4 nM): -0.039 | Keratin 8/18 (BF4T, 1.00E4 nM): -0.020 | MMP-1 (BF4T, 1.00E4 nM): -0.016 | MMP-3 (BF4T, 1.00E4 nM): 0.014 | MMP-9 (BF4T, 1.00E4 nM): -0.031 | PAI-I (BF4T, 1.00E4 nM): -0.059 | SRB (BF4T, 1.00E4 nM): 0.004 | tPA (BF4T, 1.00E4 nM): -0.022 | uPA (BF4T, 1.00E4 nM): -0.009 | CCL2/MCP-1 (BF4T, 1.11E3 nM): -0.045 | CCL26/Eotaxin-3 (BF4T, 1.11E3 nM): -0.209 | CD54/ICAM-1 (BF4T, 1.11E3 nM): -0.086 | CD90 (BF4T, 1.11E3 nM): -0.00131 | CD106/VCAM-1 (BF4T, 1.11E3 nM): -0.021 | CXCL8/IL-8 (BF4T, 1.11E3 nM): -0.056 | IL-1alpha (BF4T, 1.11E3 nM): -0.038 | Keratin 8/18 (BF4T, 1.11E3 nM): 0.020 | MMP-1 (BF4T, 1.11E3 nM): -0.016 | MMP-3 (BF4T, 1.11E3 nM): -0.0065 | MMP-9 (BF4T, 1.11E3 nM): -0.011 | PAI-I (BF4T, 1.11E3 nM): -0.00269 | SRB (BF4T, 1.11E3 nM): 0.011 | tPA (BF4T, 1.11E3 nM): 0.007 | uPA (BF4T, 1.11E3 nM): -0.016 | CCL2/MCP-1 (BF4T, 1.23E2 nM): -0.067 | CCL26/Eotaxin-3 (BF4T, 1.23E2 nM): -0.191 | CD54/ICAM-1 (BF4T, 1.23E2 nM): -0.058 | CD90 (BF4T, 1.23E2 nM): -0.00126 | CD106/VCAM-1 (BF4T, 1.23E2 nM): -0.012 | CXCL8/IL-8 (BF4T, 1.23E2 nM): -0.021 | IL-1alpha (BF4T, 1.23E2 nM): -0.020 | Keratin 8/18 (BF4T, 1.23E2 nM): -0.022 | MMP-1 (BF4T, 1.23E2 nM): 0.00135 | MMP-3 (BF4T, 1.23E2 nM): -0.007 | MMP-9 (BF4T, 1.23E2 nM): -0.047 | PAI-I (BF4T, 1.23E2 nM): -0.013 | SRB (BF4T, 1.23E2 nM): 0.00469 | tPA (BF4T, 1.23E2 nM): 0.032 | uPA (BF4T, 1.23E2 nM): 0.00319 | CCL2/MCP-1 (BF4T, 1.37E1 nM): 0.00746 | CCL26/Eotaxin-3 (BF4T, 1.37E1 nM): -0.134 | CD54/ICAM-1 (BF4T, 1.37E1 nM): -0.057 | CD90 (BF4T, 1.37E1 nM): -0.011 | CD106/VCAM-1 (BF4T, 1.37E1 nM): -0.028 | CXCL8/IL-8 (BF4T, 1.37E1 nM): -0.024 | IL-1alpha (BF4T, 1.37E1 nM): -0.024 | Keratin 8/18 (BF4T, 1.37E1 nM): -0.00271 | MMP-1 (BF4T, 1.37E1 nM): -0.015 | MMP-3 (BF4T, 1.37E1 nM): 0.049 | MMP-9 (BF4T, 1.37E1 nM): -0.026 | PAI-I (BF4T, 1.37E1 nM): -0.020 | SRB (BF4T, 1.37E1 nM): 0.005 | tPA (BF4T, 1.37E1 nM): 0.049 | uPA (BF4T, 1.37E1 nM): 0.009 | CCL2/MCP-1 (BF4T, 3.33E3 nM): -0.061 | CCL26/Eotaxin-3 (BF4T, 3.33E3 nM): -0.184 | CD54/ICAM-1 (BF4T, 3.33E3 nM): -0.074 | CD90 (BF4T, 3.33E3 nM): 0.011 | CD106/VCAM-1 (BF4T, 3.33E3 nM): 0.002 | CXCL8/IL-8 (BF4T, 3.33E3 nM): -0.042 | IL-1alpha (BF4T, 3.33E3 nM): -0.055 | Keratin 8/18 (BF4T, 3.33E3 nM): -0.022 | MMP-1 (BF4T, 3.33E3 nM): -0.012 | MMP-3 (BF4T, 3.33E3 nM): -0.048 | MMP-9 (BF4T, 3.33E3 nM): -0.00425 | PAI-I (BF4T, 3.33E3 nM): -0.026 | SRB (BF4T, 3.33E3 nM): 0.006 | tPA (BF4T, 3.33E3 nM): 0.015 | uPA (BF4T, 3.33E3 nM): -0.019 | CCL2/MCP-1 (BF4T, 3.70E2 nM): -0.039 | CCL26/Eotaxin-3 (BF4T, 3.70E2 nM): -0.177 | CD54/ICAM-1 (BF4T, 3.70E2 nM): -0.076 | CD90 (BF4T, 3.70E2 nM): -0.00567 | CD106/VCAM-1 (BF4T, 3.70E2 nM): -0.004 | CXCL8/IL-8 (BF4T, 3.70E2 nM): -0.042 | IL-1alpha (BF4T, 3.70E2 nM): -0.090 | Keratin 8/18 (BF4T, 3.70E2 nM): -0.012 | MMP-1 (BF4T, 3.70E2 nM): -0.008 | MMP-3 (BF4T, 3.70E2 nM): 0.015 | MMP-9 (BF4T, 3.70E2 nM): -0.018 | PAI-I (BF4T, 3.70E2 nM): 0.003 | SRB (BF4T, 3.70E2 nM): 3.34e-5 | tPA (BF4T, 3.70E2 nM): 0.027 | uPA (BF4T, 3.70E2 nM): -0.022 | CCL2/MCP-1 (BF4T, 4.12E1 nM): -0.019 | CCL26/Eotaxin-3 (BF4T, 4.12E1 nM): -0.203 | CD54/ICAM-1 (BF4T, 4.12E1 nM): -0.044 | CD90 (BF4T, 4.12E1 nM): 0.0044 | CD106/VCAM-1 (BF4T, 4.12E1 nM): -0.036 | CXCL8/IL-8 (BF4T, 4.12E1 nM): -0.031 | IL-1alpha (BF4T, 4.12E1 nM): -0.038 | Keratin 8/18 (BF4T, 4.12E1 nM): 0.00849 | MMP-1 (BF4T, 4.12E1 nM): -0.002 | MMP-3 (BF4T, 4.12E1 nM): 0.027 | MMP-9 (BF4T, 4.12E1 nM): -0.011 | PAI-I (BF4T, 4.12E1 nM): -0.009 | SRB (BF4T, 4.12E1 nM): 0.000731 | tPA (BF4T, 4.12E1 nM): 0.025 | uPA (BF4T, 4.12E1 nM): -0.00027 | CCL2/MCP-1 (BF4T, 4.57E0 nM): 0.041 | CCL26/Eotaxin-3 (BF4T, 4.57E0 nM): -0.086 | CD54/ICAM-1 (BF4T, 4.57E0 nM): -0.034 | CD90 (BF4T, 4.57E0 nM): -0.000153 | CD106/VCAM-1 (BF4T, 4.57E0 nM): -0.018 | CXCL8/IL-8 (BF4T, 4.57E0 nM): 0.024 | IL-1alpha (BF4T, 4.57E0 nM): -0.020 | Keratin 8/18 (BF4T, 4.57E0 nM): -0.00266 | MMP-1 (BF4T, 4.57E0 nM): 0.000794 | MMP-3 (BF4T, 4.57E0 nM): 0.054 | MMP-9 (BF4T, 4.57E0 nM): -0.023 | PAI-I (BF4T, 4.57E0 nM): 0.019 | SRB (BF4T, 4.57E0 nM): -0.008 | tPA (BF4T, 4.57E0 nM): 0.057 | uPA (BF4T, 4.57E0 nM): -0.00538 | B cell Proliferation (BT, 1.00E4 nM): -0.013 | PBMC Cytotoxicity (BT, 1.00E4 nM): -0.020 | Secreted IgG (BT, 1.00E4 nM): -0.332 | sIL-2 (BT, 1.00E4 nM): 0.00561 | sIL-6 (BT, 1.00E4 nM): -0.027 | sIL-17A (BT, 1.00E4 nM): 0.321 | sIL-17F (BT, 1.00E4 nM): -0.397
